# According to patent publication US12478509B2, “Layered composite for scar treatment and prevention” (THE GOVERNMENT OF THE UNITED STATES AS REPRESENTED BY THE …, priority 2019, dated 2025):
# Tests used:
# [1] = system: p38 MAPK; test: p38 MAPK activation in TGF-β1 stimulated HDF; type: cell-based, human
# [2] = system: IL-1β, IL-2, IL-6, IL-13, G-CSF, and MIP-1α; test: inflammatory cytokines
# [3] = system: mouse DPT wounds; test: neutrophil infiltration in mouse DPT burn wounds; type: in vivo
# [4] = system: human dermal fibroblasts (HDF); test: human dermal fibroblast / myofibroblast studies; type: cell-based
smiles,measurement,setting,value
"Cc1ccc(=O)n(-c2ccccc2)c1 [Pirfenidone, 5-methyl-1-phenyl-2-(1H)-pyridone]",p38 MAPK activation,[1],reduced
same,"key inflammatory cytokines IL-1β, IL-2, IL-6, IL-13, G-CSF, and MIP-1α",[2],reduced
same,neutrophil infiltration,[3],decreased
same,HDF transdifferentiation to myofibroblasts,[4],inhibited
same,collagen deposition and fibrosis-related gene expression,[4],decreased
same,contractile machinery of activated dermal myofibroblasts,[4],weakened
